Measurements taken from US8961930B2, “Isatin derivatives for use as in vivo imaging agents” (Imperial Innovations Limited, priority 2008, dated 2015).

How the values were obtained:
Type in all cases: biochemical
caspase 7 = molecular target: T1, caspase 7 (Homo sapiens, UniProt P55210); experiment: Fluorimetric in vitro caspase inhibition assay (7-AMC), caspase 7; conditions: recombinant human caspase 7, 10 μM Ac-DEVD-AMC
T1 construct: purchased Biomol International, UK
T1 sequence (P55210 24-198 limits assumed): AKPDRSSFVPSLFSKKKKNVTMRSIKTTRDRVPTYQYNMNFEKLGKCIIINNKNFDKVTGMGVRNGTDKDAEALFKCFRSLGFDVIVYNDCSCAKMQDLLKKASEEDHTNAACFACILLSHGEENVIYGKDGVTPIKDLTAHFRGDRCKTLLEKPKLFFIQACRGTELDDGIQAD
T1 sequence (P55210 207-303 limits assumed): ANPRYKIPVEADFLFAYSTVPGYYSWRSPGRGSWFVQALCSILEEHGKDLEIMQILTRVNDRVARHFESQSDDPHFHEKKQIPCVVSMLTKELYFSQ
Protocol: (§1) Recombinant human caspases-1, -3, -6, -7, and -8 and their peptide-specific substrates were purchased from Biomol International, UK Inhibition of the recombinant caspases by non-radioactive isatins was assessed using a fluorometric assay that measures the accumulation of a fluorogenic product, 7-amino-4-methylcoumarin (7-AMC). All assays were performed in 96-well plates at a volume of 200 μl per well. The assays were performed at 37° C. in an appropriate reaction buffer as described below for each caspase. For caspase 1, the buffer comprised of 0.1% CHAPS, 100 mM NaCl, 5 mM 2-mercaptoethanol, 100 mM HEPES (pH 7.4), 2 mM EDTA, 10% sucrose, and 10 μM of the peptide substrate Ac-YVAD-AMC. For caspase 3: 20 mM HEPES (pH 7.4), 10% sucrose, 100 mM NaCl, 0.1% CHAPS, 2 m, mM EDTA, and 10 μM Ac-DEVD-AMC. For caspase 6: 20 mM HEPES (pH 7.4), 10% sucrose, 100 mM NaCl, 0.1% CHAPS, 2 mM EDTA, and 10 μM Ac-VEID-AMC. For caspase 7: 20 mM HEPES (pH 7.4), 10% sucrose, 5 mM 2-mercaptoethanol, 100 mM NaCl, 0.1% CHAPS, 2 mM EDTA, 10 μM Ac-DEVD-AMC. For caspase 8: 20 mM HEPES (pH 7.4), 10% sucrose, 100 mM NaCl, 0.1% CHAPS, 2 mM EDTA, and 10 μM Ac-IETD-AMC. The Buffers contained non-radioactive isatins in DMSO at a final concentration of 500, 50, 5 μM; 500, 50, 5 nM; 500, 50, 5 pM; the final concentration of DMSO in all wells was 5% of the total volume. Recombinant caspases were used at 0.5 units per assay (˜500 pmol substrate converted per h). All reagents except the peptide substrate were pre-incubated for 10 min. The peptide substrate (final concentration 10 μM) was then added and the plate was incubated for a further 30 min; 30 min was selected after initial linearity study where reaction was assessed after 10, 30, 60 or 90 min. The 30 min time point was selected. Respective control wells contained all reaction components without enzyme. The amount of 7-AMC produced was measured on a fluorescence microplate reader (Victor2; Perkin-Elmer Life sciences) at excitation and emission wavelengths of 355 nm and 460 nm, respectively. The concentration of isatin that inhibits the caspase activity by 50% (EC50) was estimated by non-linear regression analysis using GraphPad Prism (Version 4.0 for Windows, GraphPad Software, San Diego Calif. USA). All the isatins were analyzed in duplicate; the assays were repeated once. Known compounds 13-16 were included as reference compounds.
(§2) The data are the average for two runs, each of which was duplicated, at nine concentrations ranging from 5 pM to 500 μM; the drug concentration required to inhibit each enzyme by 50% (EC50) was obtained from nonlinear regression analysis of the inhibition profiles.

caspase 8 = molecular target: T2, caspase 8 (Homo sapiens, UniProt Q14790); experiment: Fluorimetric in vitro caspase inhibition assay (7-AMC), caspase 8; conditions: recombinant human caspase 8, 10 μM Ac-IETD-AMC; read-out: Caspase EC50 (nM), 1/6/8: caspase 8
T2 construct: purchased Biomol International, UK
T2 sequence (Q14790 217-374 limits assumed): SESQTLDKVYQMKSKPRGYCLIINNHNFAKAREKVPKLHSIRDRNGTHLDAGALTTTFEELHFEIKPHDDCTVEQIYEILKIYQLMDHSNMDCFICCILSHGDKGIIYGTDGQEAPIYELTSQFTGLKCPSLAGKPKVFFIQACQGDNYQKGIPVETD
T2 sequence (Q14790 385-479 limits assumed): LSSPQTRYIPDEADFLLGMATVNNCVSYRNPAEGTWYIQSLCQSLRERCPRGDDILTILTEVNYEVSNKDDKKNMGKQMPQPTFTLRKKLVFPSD
Protocol: as §1, §2

caspase 6 = molecular target: T3, caspase 6 (Homo sapiens, UniProt P55212); experiment: Fluorimetric in vitro caspase inhibition assay (7-AMC), caspase 6; conditions: recombinant human caspase 6, 10 μM Ac-VEID-AMC; read-out: Caspase EC50 (nM), 1/6/8: caspase 6
T3 construct: purchased Biomol International, UK
T3 sequence (P55212 24-179 limits assumed): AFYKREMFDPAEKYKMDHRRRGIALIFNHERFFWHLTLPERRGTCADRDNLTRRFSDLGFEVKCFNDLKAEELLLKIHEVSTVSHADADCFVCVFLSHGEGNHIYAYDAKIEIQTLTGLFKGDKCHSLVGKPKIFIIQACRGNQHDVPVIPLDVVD
T3 sequence (P55212 194-293 limits assumed): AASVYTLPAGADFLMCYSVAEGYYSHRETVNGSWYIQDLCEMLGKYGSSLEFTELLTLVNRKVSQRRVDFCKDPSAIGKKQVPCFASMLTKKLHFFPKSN
Protocol: as §1, §2

caspase 1 = molecular target: T4, caspase 1 (Homo sapiens, UniProt P29466); experiment: Fluorimetric in vitro caspase inhibition assay (7-AMC), caspase 1; conditions: recombinant human caspase 1, 10 μM Ac-YVAD-AMC; read-out: Caspase EC50 (nM), 1/6/8: caspase 1
T4 construct: purchased Biomol International, UK
T4 sequence (P29466 120-297 limits assumed): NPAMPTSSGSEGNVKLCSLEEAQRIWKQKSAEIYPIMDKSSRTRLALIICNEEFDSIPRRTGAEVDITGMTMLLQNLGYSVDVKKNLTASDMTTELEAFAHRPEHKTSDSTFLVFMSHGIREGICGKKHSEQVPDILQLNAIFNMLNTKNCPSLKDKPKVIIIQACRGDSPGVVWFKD
T4 sequence (P29466 317-404 limits assumed): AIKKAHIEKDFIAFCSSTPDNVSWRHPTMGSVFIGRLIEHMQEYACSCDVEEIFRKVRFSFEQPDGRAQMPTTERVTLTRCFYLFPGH
Protocol: as §1, §2

Compound | EC50 (caspase 7) [nM] | EC50 (caspase 8) [nM] | EC50 (caspase 6) [nM] | EC50 (caspase 1) [nM]
O=C1C(=O)N(Cc2ccc(F)cc2)c2ccc(S(=O)(=O)N3CCC[C@H]3COc3ccc(F)cc3F)cc21 [Compound 2, (S)-1-(4-Fluorobenzyl)-5-(2-(2,4-difluorophenoxymethyl)-pyrrolidine-1-sulfonyl)isatin] | 13 | > 5000 | > 5000 | > 5000
O=C1C(=O)N(Cc2ccc(F)cc2)c2ccc(S(=O)(=O)N3CCC[C@H]3COC3CCOCC3)cc21 [Compound 4, (S)-1-(4-Fluorobenzyl)-5-(2-(tetrahydro-2H-pyran-4-yloxymethyl)-pyrrolidine-1-sulfonyl)isatin] | 14.4 | > 5000 | > 5000 | > 5000
O=C1C(=O)N(Cc2cn(CCF)nn2)c2ccc(S(=O)(=O)N3CCC[C@H]3COc3ccccc3)cc21 [Compound 10, (S)-1-((1-(2-Fluoroethyl)-1H-[1,2,3]-triazol-4-yl)methyl)-5-(2-phenoxymethyl-pyrrolidine-1-sulfonyl)isatin] | 28.2 | > 5000 | > 5000 | > 5000
O=C1C(=O)N(Cc2cn(CCF)nn2)c2ccc(S(=O)(=O)N3CCC[C@H]3COc3ccc(F)cc3F)cc21 [Compound 11, (S)-1-((1-(2-Fluoroethyl)-1H-[1,2,3]-triazol-4-yl)methyl)-5-(2(2,4-difluorophenoxymethyl)-pyrrolidine-1-sulfonyl)isatin] | 2.2 | > 5000 | > 5000 | > 5000
O=C1C(=O)N(Cc2ccccc2)c2ccc(S(=O)(=O)N3CCC[C@H]3COc3ccccc3)cc21 [Compound 13, (S)-1-benzyl-5-(2-phenoxymethyl-pyrrolidine-1-sulfonyl)isatin, reference compound] | 29.4 | > 5000 | > 5000 | > 5000
O=C1C(=O)N(Cc2ccc(I)cc2)c2ccc(S(=O)(=O)N3CCC[C@H]3COc3ccccc3)cc21 [Compound 14, (S)-1-(4-iodobenzyl)-5-(2-phenoxymethyl-pyrrolidine-1-sulfonyl)isatin, reference compound] | 25.3 | > 5000 | > 5000 | > 5000
O=C1C(=O)N(Cc2ccc(F)cc2)c2ccc(S(=O)(=O)N3CCC[C@H]3COc3ccccc3)cc21 [Compound 15, (S)-1-(4-fluorobenzyl)-5-(2-phenoxymethyl-pyrrolidine-1-sulfonyl)isatin, reference compound] | 19.8 | > 5000 | > 5000 | > 5000

Further compounds by falling EC50 (caspase 7), results first:

EC50 (caspase 7) [nM] | EC50 (caspase 8) [nM] | EC50 (caspase 6) [nM] | EC50 (caspase 1) [nM] | Compound
78.6 | > 5000 | > 5000 | > 5000 | O=C1C(=O)N(Cc2ccc(F)cc2)c2ccc(S(=O)(=O)N3CCCC3)cc21 [Compound 16, 1-(4-Fluorobenzyl)-5-(pyrrolidine-1-sulfonyl)isatin, reference compound]
60.4 | > 5000 | > 5000 | > 5000 | C#CCN1C(=O)C(=O)c2cc(S(=O)(=O)N3CCC[C@H]3COc3ccc(F)cc3F)ccc21 [Compound 25, (S)-1-(2-Propynyl)-5-(2-(2,4-difluorophenoxymethyl)-pyrrolidine-1-sulfonyl)isatin]
13.5 | > 5000 | > 5000 | > 5000 | O=C1C(=O)N(Cc2ccc(F)cc2)c2ccc(S(=O)(=O)N3CCC[C@H]3COc3cccc(F)c3)cc21 [Compound 1, (S)-1-(4-Fluorobenzyl)-5-(2-(3-fluorophenoxymethyl)-pyrrolidine-1-sulfonyl)isatin]
8 | > 5000 | > 5000 | > 5000 | O=C1C(=O)N(Cc2ccc(F)cc2)c2ccc(S(=O)(=O)N3CCC[C@H]3COc3ccc(F)cc3)cc21 [Compound 22, (S)-1-(4-Fluorobenzyl)-5-(2-(4-fluorophenoxymethyl)-pyrrolidine-1-sulfonyl)isatin]
2.3 | > 5000 | > 5000 | > 5000 | O=C1C(=O)N(Cc2ccc(F)cc2)c2ccc(S(=O)(=O)N3CCC[C@H]3COc3ccncn3)cc21 [Compound 5, (S)-1-(4-Fluorobenzyl)-5-(2-(pyrimidin-4-yloxymethyl)-pyrrolidine-1-sulfonyl)isatin]
